US5411956A, “Lipolytic enzyme inhibitors” (Nisshin Flour Milling Co., Ltd., priority 1989, dated 1995)

Key:
[1] = Serum triglyceride concentration in rats after oral corn oil emulsion; type: in vivo, SD male rats; details: 2 ml corn oil emulsion + 100 mg ε-poly-L-lysine/dextrin 1:1, relative to pre-dose (0)
Description: Two groups of 10 SD male rats (9 weeks age, 200 g average bodyweight) were prepared.
50 g of corn oil, 6 g of yolk lecithine and 12.5 g of glycerol were added to distilled water to make up to 100 ml. The mixture was ultrasonicated to prepare an emulsion.
The rats of first group were each given 2 ml of the emulsion and 100 mg of ε-poly-L-lysine manufactured by Chisso Corp. (containing dextrin and ε-poly-L-lysine at a weight ratio of 1:1 and having formula (I) wherein n is ca. 30), orally using a gastric probe. Blood was drawn at predetermined intervals from the tail vein, and serum triglyceride concentration was measured using Kyowa Medics enzyme Kit TG, determined for mean value (mg/dl) per animal and calculated on the basis of serum triglyceride concentration prior to administration (taken as 0 mg/dl) (According to the invention).
The rats of second group were orally given 2 ml of the emulsion and 50 mg of dextrin. Serum triglyceride concentration was measured at predetermined intervals, determined for the average value and calculated in the same way as above (Comparative example).

[2] = molecular target: T1, porcine pancreatic lipase (Sus scrofa, UniProt P00591); assay: Assay of lipase inhibitory activity (olive oil emulsion with sodium cholate, Tris buffer); type: biochemical
T1 construct: purchased Sigma Co., Ltd
T1 sequence (P00591 1-450): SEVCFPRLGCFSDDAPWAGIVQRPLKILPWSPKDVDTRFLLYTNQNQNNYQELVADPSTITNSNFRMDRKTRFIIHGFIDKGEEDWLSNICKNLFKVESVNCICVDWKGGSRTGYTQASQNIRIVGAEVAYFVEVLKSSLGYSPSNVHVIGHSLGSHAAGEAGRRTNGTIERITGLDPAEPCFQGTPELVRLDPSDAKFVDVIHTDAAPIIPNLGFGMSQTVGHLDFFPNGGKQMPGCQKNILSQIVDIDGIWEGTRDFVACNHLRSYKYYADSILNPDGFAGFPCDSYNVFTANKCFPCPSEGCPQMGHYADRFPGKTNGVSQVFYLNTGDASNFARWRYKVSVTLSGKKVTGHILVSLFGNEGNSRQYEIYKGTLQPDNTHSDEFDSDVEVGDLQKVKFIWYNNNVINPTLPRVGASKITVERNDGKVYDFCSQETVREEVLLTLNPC
Description: 250 mg of an olive oil, 21.5 mg of sodium cholate as a bile acid component and 30 mg of phosphatidylcholine were added to 5 ml of a 200 mM Tris buffer solution at pH 6.8 (called hereafter "Tris buffer").
(§1) The mixture was ultrasonicated to prepare an olive oil emulsion.
Porcine pancreatic lipase (manufactured by Sigma Co., Ltd.) was added to Tris buffer to prepare an enzyme solution containing 100 units porcine pancreatic lipase per ml.
(§2) The control and six test samples were prepared in the following manner.
(§3) 100 μl of an olive oil emulsion as prepared above were used as a substrate.
(§4) 50 μl of Tris buffer was added to the substrate to prepare an emulsion for control sample. […] All of the emulsions were incubated for 5 min. To each of those emulsions was added 50 μl of the lipase solution as prepared above. The resulting mixture was incubated at 37° C. for one hour, subsequently to which were added 3 ml of the same extraction solvent as used in Example 1. After being shaken for 5 min., the mixture was centrifuged at 3000 rpm for 5 min. The upper layer was removed with an aspirator and to the remaining solution was added 1 ml of the same copper reagent as used in Example 1. The mixture was shaken for 5 min. and centrifuged at 3000 rpm for 5 min. 0.5 ml of a solution was taken from the upper layer and to the solution was added 0.5 ml of the same color developing agent as used in Example 1.
(§5) The resulting solutions for control and test samples were measured for the absorbance at 480 nm (A480) using a photometer to determine the amount of the free fatty acids as formed, i.e., the activity of the porcine pancreatic lipase.
100 μl of an olive oil emulsion prepared in the same way as in Example 4 were used as a substrate.
50 μl of Tris buffer was added to the substrate to prepare an emulsion for control sample. Each 50 μl of the polypeptide-containing solutions as prepared above was added to 100 μl of the substrate to prepare two emulsions for test sample. After incubating the emulsions for 5 min., there was added 50 μl of the enzyme solution prepared in the same way as in Example 4.
Further, the incubated mixture was treated and measured for the activity of porcine pancreatic lipase in the same way as in Example 4.
Lysine oligomers having a degree of polymerization of 2-5 as shown in Table 6 below were prepared using a peptide synthesizer (Biolynx 4170, LKB-Pharmacia Co., Ltd.). Each of the oligomers was purified by high performance liquid chromatography. Each of the purified oligomers was added to distilled water to make up to 1 μmol/ml. […] lysine oligomer-containing solutions were thus prepared.
50 μl of Tris buffer was added to the substrate to prepare an emulsion for control sample. […] After incubating the emulsions for 5 min., there was added 50 μl of a lipase solution containing 100 units of porcine pancreatic lipase per ml as prepared in the same way as in Example 4.

[3] = molecular target: T1, porcine pancreatic lipase; assay: Assay of lipase inhibitory activity of proteins (olive oil emulsion with sodium cholate, potassium phosphate buffer); type: biochemical; details: for Activity of porcine pancreatic lipase (%): 4 mg/ml protein solution, percentage of control Abs480, sodium cholate present, potassium phosphate buffer pH 6.8, 37 °C, one hour
Description: 250 mg of an olive oil, 21.5 mg of sodium cholate as a bile acid component and 30 mg of phosphatidylcholine were added to 5 ml of a 300 mM potassium phosphate buffer solution at pH 6.8 (called hereafter "potassium phosphate buffer").
as §1
Porcine pancreatic lipase (manufactured by Sigma Co., Ltd.) was added to the potassium phosphate buffer solution to prepare a lipase solution containing 100 units porcine pancreatic lipase per ml.
as §2, §3
50 μl of potassium phosphate buffer was added to the substrate to prepare an emulsion for control sample. Each 50 μl of the protein(polypeptide)-containing solutions as prepared above was added to 100 μl of the substrate to prepare six emulsions for test samples. All of the emulsions were incubated for 5 min. To each of those emulsions was added 50 μl of the lipase solution as prepared above. The resulting mixture was incubated at 37 ° C. for one hour, subsequently to which were added 3 ml of an extraction solvent (chloroform:methanol:n-heptane=49:1:49). After being shaken for 5 min., the mixture was centrifuged at 3000 rpm for 5 min. The upper layer was removed with an aspirator and to the remaining solution was added 1 ml of a copper reagent (0.45M triethanol amine, 0.05N acetic acid, 3.4% copper sulfate pentahydrate and 20% sodium chloride). The mixture was shaken for 5 min. and centrifuged at 3000 rpm for 5 min. 0.5 ml of a solution was taken from the upper layer and to the solution was added 0.5 ml of a color developing agent (a solution of 0.1% bathocuproine and 0.05% butyl hydroxyanisole in the above extraction solvent).
as §5

[4] = tested on: cholesterol esterase isolated from porcine pancreas; details: 4 mg/ml protein solution; percentage of control Abs480; sodium cholate present; 37 °C, one hour
Description: as §3
as §4, with “potassium phosphate” for “Tris”

[5] = 1 mg per 10 ml Tris buffer solution, pH 6.8, sodium cholate present, percentage of control Abs480
[6] = 1 mg/ml peptide solution in distilled water, Tris buffer system as Example 4

What does the source list for ε-poly-L-lysine?
Blood concentration of neutral fats ([1]; 1 hr after oral administration): 53.3 ± 2.5 mg/dL; Blood concentration of neutral fats ([1]; 2 hrs after oral administration): 32.4 ± 4.9 mg/dL; Blood concentration of neutral fats ([1]; 3 hrs after oral administration): 16.7 ± 3.2 mg/dL; Blood concentration of neutral fats ([1]; 4 hrs after oral administration): 11.1 ± 3.0 mg/dL; Blood concentration of neutral fats ([1]; 7 hrs after oral administration): 4.2 ± 1.0 mg/dL

With “β-Purothionin: purified β-purothionin (SEQ ID NO: 3) isolated from the crude wheat purothionin mixture (KSCCKSTLGRNCYNLCRARGAQKLCANVCRCKLTSGLSCPKDFPK)” as the molecule, how does the “Activity of porcine pancreatic lipase (%)” value [2, 5] read?
Its value is 1.3%.

What about the “Activity of porcine pancreatic lipase (%)” value [3] of the same molecule?
Its value is 0%.

And the “Activity of porcine pancreatic lipase” value ([3]; concentration of 0.04 mg/ml, separate experiment in a similar manner)?
Its value is 5.2%.

And the Lipase activity ([3]; protein solution diluted to 0.2 mg/ml, otherwise as Example 1)?
Its Lipase activity is 0%.

For α-poly-L-lysine hydrochloride, which “Activity of porcine pancreatic lipase (%)” value [2, 5] is on record?
Its value is 6.9%.

And the “Activity of porcine pancreatic lipase (%)” value [2, 6]?
The value was 1.6%.

Which “Activity of porcine pancreatic lipase (%)” value [2, 6] does the source give for α-poly-D-lysine hydrobromide here?
The value was 1.1%.

Which results are given for “β-Lactoglobulin: β-lactoglobulin (L0130, Sigma Co., Ltd.), not a basic protein [reference compound]”?
Activity of cholesterol esterase (%) [4]: 89.9%; Activity of porcine pancreatic lipase (%) [3]: 103.9%

Which “Activity of porcine pancreatic lipase (%)” value [2, 5] does the source give for Protamine here?
Its value is 1.3%.

B1: Ovalbumin: ovalbumin (A5503, Sigma Co., Ltd.), not a basic protein (protein, UniProt P01012 2-386, looked up)
Ovalbumin: GSIGAASMEFCFDVFKELKVHHANENIFYCPIAIMSALAMVYLGAKDSTRTQINKVVRFDKLPGFGDSIEAQCGTSVNVHSSLRDILNQITKPNDVYSFSLASRLYAEERYPILPEYLQCVKELYRGGLEPINFQTAADQARELINSWVESQTNGIIRNVLQPSSVDSQTAMVLVNAIVFKGLWEKAFKDEDTQAMPFRVTEQESKPVQMMYQIGLFRVASMASEKMKILELPFASGTMSMLVLLPDEVSGLEQLESIINFEKLTEWTSSNVMEERKIKVYLPRMKMEEKYNLTSVLMAMGITDVFSSSANLSGISSAESLKISQAVHAAHAEINEAGREVVGSAEAGVDAASVSEEFRADHPFLFCIKHIATNAVLFFGRCVSP
With B1 as the molecule, how does the “Activity of cholesterol esterase (%)” value [4] read?
Its value is 93.6%.

What about the “Activity of porcine pancreatic lipase (%)” value [3] of the same molecule?
The value was 107.0%.
